Patent US20020115661A1, “Method for treating chronic obstructive pulmonary disease” (priority 2000, published 2002)
Like-named read-outs stand apart in the source and are kept apart here.

Tests used:
human ETB receptors = molecular target: T1, human ETB receptors (Homo sapiens, UniProt P24530); test: [125I]ET-3 binding to recombinant human ETB receptors (CHO cell membranes); settings: [125I]ET-3; CHO cell membranes with cloned human ETB receptors; read-out: ETB, IC50
T1 construct: expressed in transfected cells; host or cells: CHO cells
T1 sequence (P24530 27-442): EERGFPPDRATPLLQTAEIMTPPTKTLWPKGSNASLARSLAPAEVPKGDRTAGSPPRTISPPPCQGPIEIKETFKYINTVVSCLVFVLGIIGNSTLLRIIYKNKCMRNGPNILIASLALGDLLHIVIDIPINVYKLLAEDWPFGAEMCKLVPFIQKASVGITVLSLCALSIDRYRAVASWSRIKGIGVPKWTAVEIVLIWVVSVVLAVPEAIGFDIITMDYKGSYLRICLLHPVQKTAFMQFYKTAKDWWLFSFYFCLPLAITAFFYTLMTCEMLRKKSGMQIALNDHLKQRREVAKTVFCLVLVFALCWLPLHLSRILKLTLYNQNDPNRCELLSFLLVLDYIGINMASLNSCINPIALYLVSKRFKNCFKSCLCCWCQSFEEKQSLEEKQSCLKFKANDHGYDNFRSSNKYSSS

Solubility = type: physicochemical
Procedure: The compound acts as a base, raising the pH of the water to a measured value of 8.9 for a 100 mg/mL solution.
CI-1034 is insoluble in hexane and isopropanol.

[1] = Octanol-aqueous partition coefficient, shake-flask method with HPLC; type: physicochemical
Procedure: Partition Coefficient: The octanol-aqueous partition coefficient at various pH values was determined by the shake-flask method using HPLC for measurement of the amount of compound in each phase.

[2] = Oral rising single-dose pharmacokinetic study in healthy subjects; type: in vivo, human

SMILES: CCc1cc(C2=C(C(=O)[O-])N(c3ccccc3C(F)(F)F)S(=O)(=O)c3ccccc32)cc2c1OCO2.[K+] [CI-1034, 4-(7-Ethyl-1,3-benzodioxol-5-yl)-2-[2-(trifluoromethyl)phenyl]-2H-1 ,2-benzothiazine-3-carboxylic acid 1,1-dioxide monopotassium salt]
- IC50 (human ETB receptors): 1600 nM
- solubility (Solubility; 0.05 M pH 4 acetate buffer): very slightly soluble
- solubility (Solubility; 0.05 M pH 7.4 potassium phosphate buffer): very slightly soluble
- solubility (Solubility; 0.1N HCl): insoluble
- pH of aqueous solution (Solubility; 100 mg/mL solution in water): 8.9
- concentration after 24 hours (Solubility; 0.5 M pH 7.4 potassium phosphate buffer, after 24 hours): approximately 0.8 mg/mL
- concentration reached on rapid dissolution (Solubility; 0.5 M pH 7.4 potassium phosphate buffer, initial): approximately 13 mg/mL
- solubility (Solubility; acetonitrile): slightly soluble
- solubility (Solubility; chloroform): very slightly soluble
- solubility (Solubility; dichloromethane): very slightly soluble
- solubility (Solubility; dimethylsulfoxide): freely soluble
- solubility (Solubility; ethanol): sparingly soluble
- solubility (Solubility; hexane): insoluble
- solubility (Solubility; isopropanol): insoluble
- solubility (Solubility; methanol): freely soluble
- solubility (Solubility; tetrahydrofuran): slightly soluble
- solubility (Solubility; water): freely soluble
- logD ([1]; pH 1, 0.1N Hydrochloric Acid): 3.24
- logD ([1]; pH 4, 0.05 M Sodium Acetate Buffer): 2.93
- logD ([1]; pH 7.4, 0.05 M Potassium Phosphate Buffer): 0.56
- Renal excretion of unchanged CI-1034 ([2]; Study 1034-001): < 3 % of the dose
- half-life ([2]; human, plasma, oral, 400-mg dose, read-out: additional elimination half-life (converted)): ~780 min
- half-life ([2]; human, plasma, single oral doses, Study 1034-001, read-out: elimination half-life (t½)): 120 to 240 min
- Tmax ([2]; human, plasma, single oral doses, Study 1034-001, read-out: time to maximal plasma concentrations (tmax)): 1 to 3 h
- Cmax and AUC(0-∞) with increasing dose ([2]; single oral doses): slightly more than proportional increases
